The values that follow come from patent US8828997B2, “2,3-dihydro-1H-imidazo(1,2-a)pyrimidin-5-one derivatives, preparation thereof, and pharmaceutical use thereof” (Sanofi, priority 2009, dated 2014).

pIC50: −log10 of the molar value.

What all share (format): cell-based
The subject of assay [1] is translocation of the LC3 protein in Hela GFP-LC3 cells. In words: Translocation of the LC3 protein in Hela human cells measured by image analysis cytometry (test C, autophagy). The following applies: Homo sapiens, HeLa, 2 h, EBSS + 10 μM hydroxychloroquine, cells with LC3 granulations, absolute IC50. As for the experimental part: Inhibitory activity of the molecules on autophagy is measured by means of the translocation of the LC3 protein from the cytoplasm to the autophagosomes. For this, Hela cells were transfected with a vector encoding the chimeric protein GFP-LC3. A Hela clone stably expressing the GFP-LC3 protein was selected.
Study of the Translocation of the LC3 Protein in Hela Human Cells, Measured by Image Analysis Cytometry (Test C):
On day 1, the Hela GFP-LC3 cells are seeded into 96-well plates coated with poly-D-lysine (Greiner, #655946) at the concentration of 15000 cells/well in 200 μl of DMEM medium (DMEM Gibco #11960-044) containing 10% of foetal calf serum (FCS Gibco, #10500-056) and 1% glutamine (L-Glu Gibco #25030-024), and incubated at 37° C., 5% CO2, overnight.
On day 2, the cells are washed twice with EBSS (Sigma #E3024). The cells are then incubated in EBSS, 10 μM hydroxychloroquine and test products, for 2 hours at 37° C. in the presence of 5% CO2. The molecules are diluted in dimethyl sulphoxide (DMSO Sigma #D2650), the final DMSO percentage being 0.1%. The molecules are tested at increasing concentrations in a range that can extend from 10 nM to 1 μM.
After this incubation, the cells are fixed with 4% paraformaldehyde (Sigma #HT501128 4L) for 10 min. The cells are then washed twice with PBS and the nuclei then stained with 2 μg/ml of Hoechst 33342 (Invitrogen #H3570). The 96-well plates are then read with the iCyte image analysis cytometer (Compucyte).
The activity of the product is translated to IC50, obtained from a dose-response curve of various concentrations tested and representing the dose giving 50% specific inhibition (absolute IC50). 2 independent experiments make it possible to calculate the mean of the IC50 values.

Assay [2] deals with AKT protein phosphorylated on serine 473 (P-AKT-S473) in PC3 human prostate carcinoma cells. Nature of the assay: pAKT expression in PC3 human prostate carcinoma cells measured by MSD Multi-spot Biomarker detection (test B). The following applies: Homo sapiens, PC-3, P-AKT-S473, PC3 cells, MSD sandwich immunoassay, 1 to 2 h incubation, absolute IC50. The method, then:
The inhibitory activity of the molecules on AKT phosphorylation is measured either by western blotting using the technique described below, or by the MSD Multi-spot Biomarker detection technique from Meso Scale Discovery also described below.
Study of pAKT Expression in PC3 Human Prostate Carcinoma Cells Measured by the MSD Multi-Spot Biomarker Detection Technique from Meso Scale Discovery (Test B):
This test is based on measuring the expression of the AKT protein phosphorylated on serine 473 (P-AKT-S473), in the PC3 human prostate carcinoma line, by means of the technique based on a sandwich immunoassay using the MSD Multi-spot Biomarker Detection kit from Meso Scale Discovery: phospho-Akt (Ser473) whole cell lysate kit (#K151CAD) or phospho-Akt (Ser473)/Total Akt whole cell lysate kit (#K151OOD). The primary antibody specific for P-AKT-S473 (Kit #K151CAD) is coated onto an electrode in each well of the 96-well plates of the MSD kit: after the addition of a protein lysate to each well, the signal is visualised by adding a secondary detection antibody labelled with an electrochemoluminescent compound. The procedure followed is that described in the kit.
On day 1, the PC3 cells are seeded into 96-well plates (TPP, #92096) at the concentration of 35 000 cells/well in 200 μl of DMEM medium (DMEM Gibco #11960-044) containing 10% of foetal calf serum (FCS Gibco, #10500-056) and 1% glutamine (L-Glu Gibco #25030-024), and incubated at 37° C., 5% CO2, overnight.
On day 2, the cells are incubated in the presence or absence of the test products for 1 to 2 h at 37° C. in the presence of 5% of CO2. The molecules, diluted in dimethyl sulphoxide (DMSO Sigma #D2650), are added from a 20-times concentrated stock solution, the final percentage of DMSO being 0.1%. The molecules are tested either at a single concentration of less than or equal to 10 μM, or at increasing concentrations in a range that can extend from less than 1 nM to 10 μM.
After this incubation, the cells are lysed for the preparation of the proteins. For this, after the culture medium has been drawn off, 50 μl of complete Tris Lysis Buffer of the MSD kit containing the protease and phosphatase inhibitor solutions are added to the wells and the cells are lysed for 1 h at 4° C. with shaking. At this stage, the plates containing the lysates can be stored at −20° C. or at −80° C.
The wells of the 96-well plates of the MSD kit are saturated for 1 h at ambient temperature with the blocking solution of the MSD kit. Four washes are carried out with 150 μl of Tris Wash Buffer of the MSD kit. The lysates previously prepared are transferred into the 96-well multi-spot plates of the MSD kit and incubated for 1 h at ambient temperature, with shaking. Four washes are carried out with 150 μl of Tris Wash Buffer of the MSD kit. 25 μl of the MSD sulfo-tag detection antibody solution are added to the wells and incubated for 1 h at ambient temperature, with shaking. Four washes are carried out with 150 μl of Tris Wash Buffer of the MSD kit. 150 μl of Read Buffer of the MSD kit are added to the wells and the plates are read immediately on the S12400 instrument from Meso Scale Discovery.
The instrument measures a signal for each well. Wells without cells and containing the lysis buffer serve to determine the background noise that will be subtracted from all the measurements (min). The wells containing cells in the absence of product and in the presence of 0.1% DMSO are considered to be the 100% signal (max). The percentage inhibition is calculated for each concentration of test product according to the following formula: (1-((test−min)/(max−min)))×100.
The activity of the product is translated to IC50, obtained from a dose-response curve of the various concentrations tested and representing the dose giving 50% specific inhibition (absolute IC50). 2 independent experiments make it possible to calculate the mean of the IC50 values.

In assay [3] the test system is P. falciparum (highly chloroquine-resistant strain Fcm29-Cameroon). In words: Antimalarial activity test (radioactive micromethod of Desjardins, tritiated hypoxanthine incorporation). The following applies: Plasmodium falciparum, Erythrocyte, infected human erythrocytes, 48 h. As for the experimental part:
Antimalarial Activity Test
The antimalarial activity tests are carried out according to the radioactive micromethod of Desjardins (R. E. Desjardins, C. J. Canfield, J. D. Haynes, J. D. Chulay, Antimicrob. Agents Chemother., 1979, 16, 710-718). The assays are carried out in 96-well microplates (Test Plates Ref. 92696, Techno Plastic Products Ag, Zollstrasse 155, CH-8219 Trasadingen). The P. falciparum strains are cultured in solutions of RPMI 1640 supplemented with 5% of human serum with a haematocrit at 2% and a blood parasite concentration at 1.5%. For each assay, the parasites are incubated with selected concentrations of drugs for 48 h at 37° C. in a humid atmosphere and at 5% CO2. Artemisinin, artesunate and also chloroquine diphosphate are used as reference molecules. The first dilution of the drug is prepared at 1 mg/ml in dimethyl sulphoxide. The range of dilutions of the successive daughter solutions is also prepared in dimethyl sulphoxide. Each daughter dilution is subsequently diluted to 1/50 in RPMI 1640 supplemented with 5% of human serum, all the dilutions being carried out at 37° C. These dilutions are then added to the parasites in culture in the microplates. After addition of the drug, the parasites are in culture in RPMI 1640 containing 5% of human serum and 1% of dimethyl sulphoxide. The parasite growth is measured by incorporation of tritiated hypoxanthine (added 24 h after the beginning of the exposure to the drug) compared with the incorporation in the absence of drug.
The activity of the product is translated to % inhibition of the growth of P. falciparum (highly chloroquine-resistant strain Fcm29-Cameroon) at 1 μM and 0.1 μM in an in vitro test using infected human erythrocytes.

Take `CCC(c1ccccc1)N1c2nc(N3CCOCC3)cc(=O)n2C[C@@]1(C)C(F)(F)F` (single isomer, unassigned) [Example 13, (S)-2-Methyl-7-morpholin-4-yl-1-((R) or (S)-1-phenylpropyl)-2-trifluoromethyl-2,3-dihydro-1H-imidazo[1,2-a]pyrimidin-5-one]: in assay [1], the pIC50 was 6.09.

As to `CC(c1cccc(F)c1)N1c2nc(N3CCOCC3)cc(=O)n2C[C@@]1(C)C(F)(F)F` (single isomer, unassigned) [Example 22, (2S)-1-[(1R or 1S)-1-(3-Fluorophenyl)ethyl]-2-methyl-7-(morpholin-4-yl)-2-(trifluoromethyl)-2,3-dihydroimidazo[1,2-a]pyrimidin-5(1H)-one], the pIC50 in assay [2] was 7.23; in assay [1], 6.06.

With `C[C@@]1(C(F)(F)F)Cn2c(nc(N3CCOCC3)cc2=O)N1CCSc1ccccc1` [Example 7, (S)-2-Methyl-7-morpholin-4-yl-1-(2-phenylsulfanylethyl)-2-trifluoromethyl-2,3-dihydro-1H-imidazo[1,2-a]pyrimidin-5-one], the pIC50 in assay [1] is 7.15.

Take `C[C@H](CN1c2nc(N3CCOCC3)cc(=O)n2C[C@@]1(C)C(F)(F)F)c1ccccc1` [Example 9, (S)-2-Methyl-7-morpholin-4-yl-1-((S)-2-phenylpropyl)-2-trifluoromethyl-2,3-dihydro-1H-imidazo[1,2-a]pyrimidin-5-one]: the pIC50 in assay [1] was 6.72.

On to `C[C@@]1(C(F)(F)F)Cn2c(nc(N3CCOCC3)cc2=O)N1C[C@H](O)c1ccccc1` [Example 11], for which the inhibition at 1 µM in assay [3] stood at 13%. Besides, the negative-log IC50 (pIC50) in assay [1] was 6.63.

Consider `COc1ccc(CCN2c3nc(N4CCOCC4)cc(=O)n3CC2(C)C)cc1` [Example 17, 1-[2-(4-Methoxyphenyl)ethyl]-2,2-dimethyl-7-morpholin-4-yl-2,3-dihydro-1H-imidazo[1,2-a]pyrimidin-5-one], for which the pIC50 in assay [1] was 6.46.

Take `COc1ccc(CCN2c3nc(N4CCOCC4)c(F)c(=O)n3C[C@@]2(C)C(F)(F)F)cc1` [Example 18, (2S)-6-Fluoro-1-[2-(4-methoxyphenyl)ethyl]-2-methyl-7-(morpholin-4-yl)-2-(trifluoromethyl)-2,3-dihydroimidazo[1,2-a]pyrimidin-5(1H)-one]: the pIC50 in assay [1] was 7.41.

`C[C@@]1(C(F)(F)F)Cn2c(nc(N3CCOCC3)cc2=O)N1C(=O)c1ccccc1Cl` [Example 34, (2S)-1-[(2-chlorophenyl)carbonyl]-2-methyl-7-(morpholin-4-yl)-2-(trifluoromethyl)-2,3-dihydroimidazo[1,2-a]pyrimidin-5(1H)-one]: in assay [2], the negative-log IC50 (pIC50) is 6.80.

Take `COc1cc(F)c(C(O)CN2c3nc(N4CCOCC4)cc(=O)n3C[C@@]2(C)C(F)(F)F)cc1OC` (stereo partly drawn) [Example 39, (S)-1-[2-(2-fluoro-4,5-dimethoxyphenyl)-2-hydroxyethyl]-2-methyl-7-morpholin-4-yl-2-trifluoromethyl-2,3-dihydro-1H-imidazo[1,2-a]pyrimidin-5-one]: in assay [3], the inhibition at 0.1 µM is 39% and the inhibition at 1 µM stood at 85%.

For the compound `COc1ccccc1[C@H](O)CN1c2nc(N3CCOCC3)cc(=O)n2C[C@@]1(C)C(F)(F)F` [Example 40, (S)-1-[(S)-2-hydroxy-2-(2-methoxyphenyl)ethyl]-2-methyl-7-morpholin-4-yl-2-trifluoromethyl-2,3-dihydro-1H-imidazo[1,2-a]pyrimidin-5-one], in assay [3], the inhibition at 0.1 µM turned out to be 20% and the inhibition at 1 µM worked out at 80%.

For the compound `COc1cc(Cl)ccc1[C@H](O)CN1c2nc(N3CCOCC3)cc(=O)n2C[C@@]1(C)C(F)(F)F` [Example 41, (S)-1-[(S)-2-(4-chloro-2-methoxyphenyl)-2-hydroxyethyl]-2-methyl-7-morpholin-4-yl-2-trifluoromethyl-2,3-dihydro-1H-imidazo[1,2-a]pyrimidin-5-one], the inhibition at 1 µM in assay [3] was determined as 78%.

Take `COc1cc(F)ccc1[C@H](O)CN1c2nc(N3CCOCC3)cc(=O)n2C[C@@]1(C)C(F)(F)F` [Example 42, (S)-1-[(S)-2-(4-fluoro-2-methoxyphenyl)-2-hydroxyethyl]-2-methyl-7-morpholin-4-yl-2-trifluoromethyl-2,3-dihydro-1H-imidazo[1,2-a]pyrimidin-5-one]: the inhibition at 1 µM in assay [3] turned out to be 78%.

As to `COc1ccc([C@H](O)CN2c3nc(N4CCOCC4)cc(=O)n3C[C@@]2(C)C(F)(F)F)c(Cl)c1` [Example 43, (S)-1-[(S)-2-(2-chloro-4-methoxyphenyl)-2-hydroxyethyl]-2-methyl-7-morpholin-4-yl-2-trifluoromethyl-2,3-dihydro-1H-imidazo[1,2-a]pyrimidin-5-one], in assay [3], the inhibition at 0.1 µM stood at 22% and the inhibition at 1 µM is 74%.

As a reminder, the pIC50 is −log10 of the IC50, conventionally taken in molar units. A word on the inhibition: it is the share of the control response that was lost under treatment.
